Laboratory results published in PubChem BioAssay AID588656 (The Scripps Research Institute Molecular Screening Center, 2011).

Key:
[1] = test system: HT29 cells, ERK1/2 western blot, 24 h; assay: total ERK1/2 protein level change, either direction, late-stage follow-up, counter-screen for KLF5 inhibitor project, HT29 cells, chemiluminescent western blot, powder samples (AID 588656); details: measured here: ERK1/2 protein fold change vs DMSO; at 10 µM
[2] = molecular target: Mitogen-activated protein kinase 1 (Homo sapiens) (UniProt P28482); assay: as above; details: HT29 cells, ERK1/2 western blot, 24 h; at 10 µM; stronger effect = higher value
Sequence of Mitogen-activated protein kinase 1 (Homo sapiens) (P28482 whole entry, looked up): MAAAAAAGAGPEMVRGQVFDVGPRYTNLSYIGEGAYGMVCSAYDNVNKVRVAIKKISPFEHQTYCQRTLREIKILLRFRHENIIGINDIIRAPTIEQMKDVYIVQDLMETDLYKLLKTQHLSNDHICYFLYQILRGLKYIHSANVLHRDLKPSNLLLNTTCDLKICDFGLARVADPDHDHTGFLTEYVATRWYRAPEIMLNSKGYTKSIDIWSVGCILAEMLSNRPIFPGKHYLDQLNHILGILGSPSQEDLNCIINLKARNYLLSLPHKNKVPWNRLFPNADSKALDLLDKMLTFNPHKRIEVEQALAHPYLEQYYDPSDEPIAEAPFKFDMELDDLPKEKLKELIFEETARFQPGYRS

In the case of `CN(C(=O)CNC(=O)/C=C/c1cccc(Cl)c1)C1CCS(=O)(=O)CC1`, the fold change [1] is reported as 1.97 and the inhibition [2] is reported as -96.5%.
Work on `CN(C(=O)COC(=O)/C=C/c1cccc([N+](=O)[O-])c1)C1CCS(=O)(=O)C1` (stereo unspecified) yielded a fold change [1] of 1.46 and an inhibition [2] of -46.4%.
With `CN(C(=O)CNC(=O)/C=C/c1cccc(Cl)c1)C1CCS(=O)(=O)C1` (stereo unspecified) the fold change [1] was 1.97 and the inhibition [2] was -96.6%.
